Test results: patent US20260109708A1, “COMPOUNDS AND COMPOSITIONS USEFUL AS DEGRADERS OF MK2 KINASE” (Celgene Corporation, priority 2023, published 2026)

target: T1, p38a activated, mitogen-activated protein kinase-activated protein kinase 2 (MAPKAP-K2 or MK2) enzyme (Homo sapiens, UniProt P49137); assay: MK2 OMNIA biochemical assay (AssayQuant continuous-read kinase assay); conditions: [MK-2]=0.05 nM, [ATP]=100 μM, [AQT0425]=10 μM
T1 construct: purchased Invitrogen PV3317
Outline: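 Continuous fluorescence read (ex 360/em 485) of p38a-activated MK2 phosphorylating Sox-conjugated peptide AQT0425 in 50 mM HEPES pH 7.5, 10 mM MgCl2, 1 mM DTT; reads every 71 s for 240 min at room temperature. IC50 from initial linear slopes; apparent Kinact from single-exponential Vobs fits.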

T1 sequence (P49137 whole entry): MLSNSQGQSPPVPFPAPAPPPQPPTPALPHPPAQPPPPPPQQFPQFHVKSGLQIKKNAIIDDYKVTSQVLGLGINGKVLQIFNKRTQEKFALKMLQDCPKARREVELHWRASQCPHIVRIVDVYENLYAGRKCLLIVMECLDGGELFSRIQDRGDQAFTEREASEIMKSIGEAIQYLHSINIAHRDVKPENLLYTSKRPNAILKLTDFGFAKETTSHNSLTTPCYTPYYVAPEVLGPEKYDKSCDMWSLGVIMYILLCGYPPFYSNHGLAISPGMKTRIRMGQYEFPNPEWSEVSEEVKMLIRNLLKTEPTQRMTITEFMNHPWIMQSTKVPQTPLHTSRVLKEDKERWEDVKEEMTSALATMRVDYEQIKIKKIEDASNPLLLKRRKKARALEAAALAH

IC50	SMILES
< 150 nM	C[C@@H]1CNc2c(sc3ccc4nc(-n5cc(C6CN(CCN7CCN(c8ccc(C9CCC(=O)NC9=O)cc8)CC7)C6)nn5)ccc4c23)C(=O)N1 (stereo partly drawn) [Ex 53, 3-(4-(4-(2-(3-(1-((R)-10-Methyl-8-oxo-9,10,11,12-tetrahydro-8H-[1,4]diazepino[5′,6′:4,5]thieno[3,2-f]quinolin-3-yl)-1H-1,2,3-triazol-4-yl)azetidin-1-yl)ethyl)piperazin-1-yl)phenyl)piperidine-2,6-dione]
< 150 nM	C[C@@H]1CNc2c(sc3ccc4nc(-n5cc(C6CN(CCN7CCC(c8ccc(C9CCC(=O)NC9=O)cc8)CC7)C6)nn5)ccc4c23)C(=O)N1 (stereo partly drawn) [Ex 54, 3-(4-(1-(2-(3-(1-((R)-10-Methyl-8-oxo-9,10,11,12-tetrahydro-8H-[1,4]diazepino[5′,6′:4,5]thieno[3,2-f]quinolin-3-yl)-1H-1,2,3-triazol-4-yl)azetidin-1-yl)ethyl)piperidin-4-yl)phenyl)piperidine-2,6-dione]
501 to 1000 nM	C[C@@H]1COc2c(sc3ccc4nc(C#CC5CCN(C(=O)C(=O)N6CCN(c7ccc(C8CCC(=O)NC8=O)cc7)CC6)CC5)ccc4c23)C(=O)N1 (stereo partly drawn) [Ex 55, 3-(4-(4-(2-(4-(((R)-10-Methyl-8-oxo-8,9,10,11-tetrahydro-[1,4]oxazepino[7′,6′:4,5]thieno[3,2-f]quinolin-3-yl)ethynyl)piperidin-1-yl)-2-oxoacetyl)piperazin-1-yl)phenyl)piperidine-2,6-dione]
